Data on 5 molecules can be found in ChEMBL document CHEMBL1151969, “Melanin synthesis inhibitors from Lespedeza floribunda” (J Nat Prod, 2009).

Series [1] in a line: Inhibition of melanin synthesis in NHEM cells assessed as [14C]thiouracil incorporation after 72 hrs by liquid scintillation counting. It counts as functional, cell-based, Homo sapiens. The conditions noted are these: Homo sapiens, NHEM, 72 h.
The nature of series [2]: Cytotoxicity against NHEM cells assessed as cell viability after 72 hrs by WST-8 assay. It counts as cell-based. The conditions noted are these: human.

Structures are written as SMILES.

`CC(C)=CCc1cc(-c2oc3c(CC=C(C)C)c(O)c(O)cc3c2C(=O)c2cc3c(c(CC=C(C)C)c2O)O[C@H]2c4ccc(O)c(CC=C(C)C)c4OC[C@@H]32)c(O)cc1O` [LESPEFLORIN J1]: the half-maximal inhibitory concentration (IC50) in series [1] was determined as 39600 nM. The Activity result in series [2] is on record as “Non-toxic”.
The corresponding values for `COc1ccc(-c2oc3c(CC=C(C)C)c(O)c(O)cc3c2C(=O)c2cc3c(c(CC=C(C)C)c2O)O[C@H]2c4cc(CC=C(C)C)c(O)cc4OC[C@@H]32)c(O)c1` [LESPEFLORIN J4] are more than 52800 nM and “Non-toxic”.
The corresponding values for `CC(C)=CCc1c(O)c(C)cc2c1O[C@H]1c3ccc(O)cc3OC[C@@H]21` [LESPEFLORIN G10] are 1440 nM and “Non-toxic”.
For `CC(C)=CCc1cc([C@@H]2CC(=O)c3cc(CC=C(C)C)c(O)c(CC=C(C)C)c3O2)ccc1O` [PROSTRATOL] the same measures were 980 nM and “Non-toxic”.
Take `COc1ccc2c(c1)OC[C@H]1c3cc(O)c(OC)c(CC=C(C)C)c3O[C@@H]21` [LESPEFLORIN G8]: the IC50 in series [1] was 1630 nM. Besides, the Activity entry in series [2] is “Non-toxic”.
